The conditions of data set [1]: in vivo; cited from earlier work.
The target of data set [2] is T1, AT4 receptor (Bos taurus, UniProt F1N1Q8).
T1 sequence (F1N1Q8 1-1022): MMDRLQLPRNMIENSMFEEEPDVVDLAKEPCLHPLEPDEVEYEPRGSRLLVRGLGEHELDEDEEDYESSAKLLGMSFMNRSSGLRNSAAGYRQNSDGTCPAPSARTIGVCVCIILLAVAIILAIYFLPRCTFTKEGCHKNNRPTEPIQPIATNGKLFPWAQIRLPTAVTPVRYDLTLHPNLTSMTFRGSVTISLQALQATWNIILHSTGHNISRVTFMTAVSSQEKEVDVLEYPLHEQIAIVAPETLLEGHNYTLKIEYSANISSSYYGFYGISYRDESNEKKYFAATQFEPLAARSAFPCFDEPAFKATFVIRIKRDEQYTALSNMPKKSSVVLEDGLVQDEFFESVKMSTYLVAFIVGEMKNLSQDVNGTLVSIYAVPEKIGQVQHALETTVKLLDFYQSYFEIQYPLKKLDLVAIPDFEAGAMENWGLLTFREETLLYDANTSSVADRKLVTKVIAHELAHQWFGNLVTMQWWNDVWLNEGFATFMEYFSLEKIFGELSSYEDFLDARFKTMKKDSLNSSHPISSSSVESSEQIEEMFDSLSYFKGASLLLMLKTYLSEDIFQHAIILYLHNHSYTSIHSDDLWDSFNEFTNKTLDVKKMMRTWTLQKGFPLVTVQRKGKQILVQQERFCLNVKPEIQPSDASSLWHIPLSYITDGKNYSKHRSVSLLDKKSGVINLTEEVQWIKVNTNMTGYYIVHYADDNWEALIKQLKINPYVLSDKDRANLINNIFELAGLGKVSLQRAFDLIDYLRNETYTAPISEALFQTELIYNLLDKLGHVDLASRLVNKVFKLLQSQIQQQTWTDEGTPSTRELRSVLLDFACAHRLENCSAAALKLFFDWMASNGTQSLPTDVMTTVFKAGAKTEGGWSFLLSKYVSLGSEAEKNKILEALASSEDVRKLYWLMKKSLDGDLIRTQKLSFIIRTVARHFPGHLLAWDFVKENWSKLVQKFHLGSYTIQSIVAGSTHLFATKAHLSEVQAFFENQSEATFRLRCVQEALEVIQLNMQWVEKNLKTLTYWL
Description: 125I-AIV binding and competition, bovine adrenal cortical membranes.

Data set [3] in a line: Stability of angiotensin peptides in binding buffer (reverse phase HPLC). The format is physicochemical. Particulars: 4 h at 37° C. On the procedure: Binding studies were carried out in a buffer (below) containing an extensive cocktail of inhibitors that was designed to minimize metabolism of both the receptor and the test ligand, i.e., the buffer contained 5 mM EDTA, 0.2% BSA, […] Bestatin, 50 μM Plummer's inhibitor, and 100 μM PMSF.

The conditions of data set [4]: arterial and venous blood in man; cited from earlier work.
Data set [5] deals with T1, AT4 receptor. Description: 125I-AIV binding and competition, solubilized bovine adrenal cortical receptor.
Data set [6] deals with T1, AT4 receptor. As to the kind of experiment: 125I-AIV binding and competition, coronary venular endothelial cell (CVEC) membranes. The arrangement: species or system bovine. Particulars: for Ki: read-out: Ki.
Data set [7] addresses T2, AT4 receptor (Oryctolagus cuniculus, UniProt G1SFU4).
T2 sequence (G1SFU4 1-1025): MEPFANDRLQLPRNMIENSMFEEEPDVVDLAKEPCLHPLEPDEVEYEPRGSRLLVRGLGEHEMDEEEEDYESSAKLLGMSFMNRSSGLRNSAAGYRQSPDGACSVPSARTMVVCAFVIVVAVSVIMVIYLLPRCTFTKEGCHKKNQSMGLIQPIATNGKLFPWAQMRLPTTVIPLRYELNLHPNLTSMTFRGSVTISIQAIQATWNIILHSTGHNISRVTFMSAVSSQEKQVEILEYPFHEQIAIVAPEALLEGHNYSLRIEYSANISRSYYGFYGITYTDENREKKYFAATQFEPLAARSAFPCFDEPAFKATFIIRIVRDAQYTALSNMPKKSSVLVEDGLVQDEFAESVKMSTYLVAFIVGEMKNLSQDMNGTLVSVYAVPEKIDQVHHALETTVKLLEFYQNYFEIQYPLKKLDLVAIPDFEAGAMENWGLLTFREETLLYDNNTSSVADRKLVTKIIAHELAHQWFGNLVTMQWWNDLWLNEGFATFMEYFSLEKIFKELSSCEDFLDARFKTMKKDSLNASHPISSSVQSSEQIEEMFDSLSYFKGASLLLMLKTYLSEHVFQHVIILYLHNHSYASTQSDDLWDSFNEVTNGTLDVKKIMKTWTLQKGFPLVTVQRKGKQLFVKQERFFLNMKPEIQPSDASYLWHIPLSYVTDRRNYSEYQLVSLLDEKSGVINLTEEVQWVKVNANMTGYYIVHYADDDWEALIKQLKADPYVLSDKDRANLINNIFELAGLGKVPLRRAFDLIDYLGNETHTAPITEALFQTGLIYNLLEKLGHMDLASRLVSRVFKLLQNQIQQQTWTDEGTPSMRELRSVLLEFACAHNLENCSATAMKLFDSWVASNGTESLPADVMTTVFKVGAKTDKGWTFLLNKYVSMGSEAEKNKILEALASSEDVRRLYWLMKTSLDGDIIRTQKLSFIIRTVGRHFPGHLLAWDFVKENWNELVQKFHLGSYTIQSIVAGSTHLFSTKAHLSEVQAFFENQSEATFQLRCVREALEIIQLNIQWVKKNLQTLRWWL
Description: 125I-AIV binding and competition, rabbit heart P2 membranes. To be noted: competition of 0.5 nM 125I-AIV, 120 min, 37° C.

For data set [8], the target named is T3, AT4 receptor (Cavia porcellus, UniProt H0VNM7).
T3 sequence (H0VNM7 1-1025): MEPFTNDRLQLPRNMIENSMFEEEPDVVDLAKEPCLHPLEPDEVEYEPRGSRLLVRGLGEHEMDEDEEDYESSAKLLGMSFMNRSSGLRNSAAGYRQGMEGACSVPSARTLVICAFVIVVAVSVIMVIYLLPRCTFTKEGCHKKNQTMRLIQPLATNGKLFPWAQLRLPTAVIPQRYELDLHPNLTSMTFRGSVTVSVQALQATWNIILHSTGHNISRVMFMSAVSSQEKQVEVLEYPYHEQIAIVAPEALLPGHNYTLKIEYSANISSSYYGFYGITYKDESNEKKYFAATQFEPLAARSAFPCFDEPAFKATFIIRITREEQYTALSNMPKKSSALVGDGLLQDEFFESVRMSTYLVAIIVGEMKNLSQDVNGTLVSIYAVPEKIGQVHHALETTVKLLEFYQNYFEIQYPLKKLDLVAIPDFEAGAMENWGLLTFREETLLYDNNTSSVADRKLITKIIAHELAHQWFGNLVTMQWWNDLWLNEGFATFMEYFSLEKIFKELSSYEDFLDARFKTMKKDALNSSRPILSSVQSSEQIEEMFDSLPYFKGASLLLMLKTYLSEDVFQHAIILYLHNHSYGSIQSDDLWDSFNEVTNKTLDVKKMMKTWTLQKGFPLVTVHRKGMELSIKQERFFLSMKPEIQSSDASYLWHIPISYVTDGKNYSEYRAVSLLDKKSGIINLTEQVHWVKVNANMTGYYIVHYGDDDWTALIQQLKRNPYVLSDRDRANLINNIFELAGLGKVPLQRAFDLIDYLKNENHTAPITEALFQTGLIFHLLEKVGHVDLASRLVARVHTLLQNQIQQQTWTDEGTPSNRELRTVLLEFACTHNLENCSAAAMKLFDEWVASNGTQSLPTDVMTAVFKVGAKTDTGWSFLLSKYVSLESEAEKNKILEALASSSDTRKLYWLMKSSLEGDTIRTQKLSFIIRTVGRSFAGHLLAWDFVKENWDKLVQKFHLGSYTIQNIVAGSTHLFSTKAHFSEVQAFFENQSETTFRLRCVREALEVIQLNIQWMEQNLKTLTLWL
As to the kind of experiment: 125I-AIV binding and competition, guinea pig hippocampus membranes. Particulars: competition of 0.6 nM 125I-AIV.

The target of data set [9] is T4, AT1 receptor (AII receptor) (Bos taurus, UniProt P25104).
T4 construct: from tissue; host or cells: bovine adrenal cortex membranes
T4 sequence (P25104 1-359): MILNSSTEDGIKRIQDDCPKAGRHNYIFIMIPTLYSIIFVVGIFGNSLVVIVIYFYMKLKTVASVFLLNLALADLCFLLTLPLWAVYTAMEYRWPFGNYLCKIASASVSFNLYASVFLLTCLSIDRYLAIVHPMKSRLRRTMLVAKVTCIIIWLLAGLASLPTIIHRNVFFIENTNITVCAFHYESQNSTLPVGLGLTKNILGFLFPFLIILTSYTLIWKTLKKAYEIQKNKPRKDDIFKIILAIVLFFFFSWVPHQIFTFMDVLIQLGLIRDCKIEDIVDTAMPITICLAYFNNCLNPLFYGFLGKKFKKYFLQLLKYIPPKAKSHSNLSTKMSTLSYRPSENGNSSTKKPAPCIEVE
The format is binding, bovine. Particulars: for Bmax: equilibrium binding.

The next data set has as its system rat kidney. As to the kind of experiment: Renal cortical blood flow (laser doppler) and arterial pressure after infusion into the renal artery. Format: in vivo.
[10] abbreviates: read-out: 125I-AIV Binding (Ki), competition.

The Kd is the equilibrium constant for the complex coming apart.

Where two headings read alike, the source gives them in different places.

As for `CC[C@H](C)[C@H](NC(=O)[C@H](Cc1ccc(O)cc1)NC(=O)[C@@H](NC(=O)[C@@H](N)CCCNC(=N)N)C(C)C)C(=O)N[C@@H](Cc1c[nH]cn1)C(=O)N1CCC[C@H]1C(=O)N[C@@H](Cc1ccccc1)C(=O)O` [AIII, Arg1 Val2 Tyr3 Ile4 His5 Pro6 Phe7, reference compound], the “metabolized during transit through the kidney” value in data set [1] is reported as 89%. The “fold less active than AIV ligand” value at AT4 receptor [2] (density-gradient-purified heat-treated membranes) is reported as “about 52 fold”; on AT4 receptor [5] it was “approximately 29 fold”. In addition, the Ki is 29.3 nM at AT4 receptor [2] (density-gradient-purified heat-treated membranes, read-out: apparent affinity (Ki)); greater than 14.5 nM on AT4 receptor [2] (setting [10]); 23.3 ± 3.4 nM on AT4 receptor [6] (competition of 0.5 nM 125I-AIV). Moreover, in data set [3], the “hydrolysis in binding buffer” value is listed as “less than 10%”. Also, the half-lives in data set [4] was 2.0 min. The “times less effective than AIV in competing binding” value at AT4 receptor [5] was “approximately 100 times”.
As for “Asp1 Arg2 Val3 Tyr4 Ile5 His6 Pro7 Phe8His9 Leu10 (DRVYIHPFHL) [AI]”, in data set [1], the “metabolized during transit through the kidney” value was 72-76%. In data set [3], the “hydrolysis in binding buffer” value is listed as “less than 10%”.
For CGP 42112A, the Ki at AT4 receptor [7] was greater than 1000 nM; on AT4 receptor [2] (setting [10]), greater than 100000 nM; on AT4 receptor [8], greater than 100000 nM; in data set [9] (competition) it was greater than 100000 nM; at AT4 receptor [6] (unit inferred) it was greater than 100000 nM.
As to SRVYIHPI [Sar1, Ile8 -AII], in the data set with rat kidney (1 nmol/min, 10 min preinfusion), the “average change in AIV-induced blood flow with preinfusion” value is on record as less than 3%. In addition, in the data set with rat kidney (rat, in vivo), the “effect of preinfusion on blood flow response to another ligand” value is recorded as “completely blocked the AII effect while having no effect on AIV”. The Ki with AT4 receptor [7] is greater than 1000 nM; in the data set with AT4 receptor [2] (setting [10]), greater than 1000 nM; in the data set with AT4 receptor [8], greater than 1000 nM; with AT4 receptor [6] (competition of 0.5 nM 125I-AIV), 261 ± 89.1 nM. Moreover, in [9], the “Hill Coeff.” value is reported as 1.00 ± .03. For the same molecule, the Bmax is recorded as 1.03 ± .26 pmol/mg prot in data set [9] (listed as 125I Sar1, Ile8 -Ang II) and 1.03±0.26 pmol/mg prot in data set [9] (listed as 125I-Sar1,Ile8 -AII). In addition, in [9] (read-out: Kd (calculated from kinetic constants)), the Kd is 0.225 nM. For the same molecule, the “increase in Ki (decrease in affinity) compared with AIV” value with AT4 receptor [6] came out at 200 fold.

The values are drawn from US5854388A, “Angiotensin IV peptides and receptor” (Washington State University Research Foundation, priority 1994, dated 1998).
